Laboratory results: ChEMBL document CHEMBL5321287, “Discovery, Synthesis, and Evaluation of Novel Dual Inhibitors of a Vascular Endothelial Growth Factor Receptor and Poly(ADP-Ribose) Polymerase for BRCA Wild-Type Breast Cancer Therapy” (J Med Chem, 2023)
Activity calls are given as the source filed them.

Experiments:
[1] = system: MCF7; assay: Antimigratory activity in human MCF7 cells assessed as downregulation of MMP-2 level at 4 uM in presence of 1:1 of compound:Olaparib by DAPI staining based immunofluorescence analysis; type: functional, cell-based
[2] = system: MCF7; assay: Antimigratory activity in human MCF7 cells assessed as downregulation of MMP-2 level at 4 uM by DAPI staining based immunofluorescence analysis; type: functional, cell-based
[3] = system: MDA-MB-231; assay: Induction of apoptosis in human MDA-MB-231 cells assessed as increase in Bax level at 4 uM incubated for 2 days in presence of 1:1 of compound:Olaparib by immunoblot analysis; type: functional, cell-based; conditions: time 2.0 day
[4] = system: MDA-MB-436; assay: Antiproliferative activity against human MDA-MB-436 cells assessed as cell growth inhibition
[5] = system: MDA-MB-231; assay: Antimigratory activity in human MDA-MB-231 cells assessed as downregulation of MMP-2 level at 4 uM incubated for 2 days by immunoblot analysis; type: functional, cell-based; conditions: time 2.0 day
[6] = system: MCF7; assay: Antiproliferative activity against human MCF7 cells assessed as cell growth inhibition
[7] = system: MCF7; assay: Antimigratory activity in human MCF7 cells assessed as upregulation of E-cadherin level at 4 uM incubated for 2 days by immunoblot analysis; type: functional, cell-based; conditions: time 2.0 day
[8] = system: MCF7; assay: Antimigratory activity against human MCF7 cells at 4 uM incubated for 1 hr in presence of 1:1 of compound:Olaparib by wound healing assay; type: functional, cell-based
[9] = system: MDA-MB-231; assay: Induction of HR DNA repair in human MDA-MB-231 cells xenografted in BALB/c nude mouse assessed as decrease in RAD51 level at 50 mg/kg, po for 14 days in presence of 1:1 of compound:Olaparib by Western blot analysis; type: functional, organism-based; conditions: time 14.0 day
[10] = system: MDA-MB-231; assay: Antimetastatic activity against human MDA-MB-231 cells xenografted in lungs of BALB/c nude mouse assessed as decrease in lung metastatic nodules at 50 mg/kg administered once a day measured after 14 days in presence of 1:1 of compound:Olaparib; type: functional, organism-based; conditions: time 14.0 day
[11] = system: MDA-MB-231; assay: Antimigratory activity in human MDA-MB-231 cells xenografted in lungs of BALB/c nude mouse assessed as decrease in MMP2 level in lungs at 50 mg/kg administered once a day measured after 14 days in presence of 1:1 of compound:Olaparib by IHC analysis; type: functional, organism-based; conditions: time 14.0 day
[12] = target: Vascular endothelial growth factor receptor 1 (Homo sapiens, UniProt P17948); assay: Inhibition of VEGFR1 phosphorylation at tyr1333 residue in human MDA-MB-231 cells xenografted in BALB/c nude mouse at 25 to 50 mg/kg, po for 14 days in presence of 1:1 of compound:Olaparib by Western blot analysis; type: organism-based; conditions: dose 25-50 mg/kg, time 14.0 day
Sequence of Vascular endothelial growth factor receptor 1 (P17948 whole entry): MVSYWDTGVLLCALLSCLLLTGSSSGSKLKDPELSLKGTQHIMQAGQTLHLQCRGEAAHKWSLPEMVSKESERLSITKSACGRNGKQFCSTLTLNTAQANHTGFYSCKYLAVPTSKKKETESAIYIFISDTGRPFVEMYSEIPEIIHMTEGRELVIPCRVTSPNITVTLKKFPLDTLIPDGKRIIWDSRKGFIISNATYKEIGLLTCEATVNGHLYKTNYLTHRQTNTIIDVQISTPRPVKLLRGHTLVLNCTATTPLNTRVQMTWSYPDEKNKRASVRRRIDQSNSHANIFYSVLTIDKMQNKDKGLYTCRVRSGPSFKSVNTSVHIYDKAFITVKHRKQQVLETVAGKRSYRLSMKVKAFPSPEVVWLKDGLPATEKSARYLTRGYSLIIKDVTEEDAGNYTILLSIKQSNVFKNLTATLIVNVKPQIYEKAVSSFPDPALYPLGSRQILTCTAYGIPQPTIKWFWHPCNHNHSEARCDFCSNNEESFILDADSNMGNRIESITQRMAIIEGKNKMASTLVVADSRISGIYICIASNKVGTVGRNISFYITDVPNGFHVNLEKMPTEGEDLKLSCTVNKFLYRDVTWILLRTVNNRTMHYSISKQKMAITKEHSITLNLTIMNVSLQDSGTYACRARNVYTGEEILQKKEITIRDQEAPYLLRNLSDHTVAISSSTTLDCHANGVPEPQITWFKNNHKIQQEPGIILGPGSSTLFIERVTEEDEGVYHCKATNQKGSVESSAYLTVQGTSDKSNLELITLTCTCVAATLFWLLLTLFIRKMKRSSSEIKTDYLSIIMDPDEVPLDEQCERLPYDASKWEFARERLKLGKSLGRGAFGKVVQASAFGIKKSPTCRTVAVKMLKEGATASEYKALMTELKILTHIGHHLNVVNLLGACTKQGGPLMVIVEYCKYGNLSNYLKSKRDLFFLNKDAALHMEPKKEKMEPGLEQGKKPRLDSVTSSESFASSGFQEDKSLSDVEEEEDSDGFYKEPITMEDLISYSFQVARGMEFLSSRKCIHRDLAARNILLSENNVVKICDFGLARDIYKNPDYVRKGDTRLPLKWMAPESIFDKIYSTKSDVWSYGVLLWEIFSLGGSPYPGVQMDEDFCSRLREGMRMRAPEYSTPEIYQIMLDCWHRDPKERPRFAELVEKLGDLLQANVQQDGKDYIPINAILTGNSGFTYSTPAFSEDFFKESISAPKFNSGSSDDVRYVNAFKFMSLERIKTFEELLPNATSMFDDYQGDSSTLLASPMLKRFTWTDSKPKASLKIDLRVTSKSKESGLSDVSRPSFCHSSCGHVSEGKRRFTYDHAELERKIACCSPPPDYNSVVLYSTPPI

[13] = system: MDA-MB-231; assay: Antimigratory activity in human MDA-MB-231 cells xenografted in BALB/c nude mouse assessed as upregulation of E-cadherin level at 50 mg/kg, po for 14 days in presence of 1:1 of compound:Olaparib by H and E staining based IHC analysis; type: functional, organism-based; conditions: time 14.0 day
[14] = system: MDA-MB-231; assay: Induction of apoptosis in human MDA-MB-231 cells assessed as decrease in Bcl-2 level at 4 uM incubated for 2 days in presence of 1:1 of compound:Olaparib by immunoblot analysis; type: functional, cell-based; conditions: time 2.0 day
[15] = system: MCF7; assay: Antimigratory activity in human MCF7 cells assessed as downregulation of MMP-2 level at 4 uM incubated for 2 days in presence of 1:1 of compound:Olaparib by immunoblot analysis; type: functional, cell-based; conditions: time 2.0 day
[16] = system: MDA-MB-231; assay: Antimigratory activity in human MDA-MB-231 cells assessed as upregulation of E-cadherin level at 4 uM in presence of 1:1 of compound:Olaparib by DAPI staining based immunofluorescence analysis; type: functional, cell-based
[17] = system: MDA-MB-231; assay: Downregulation of PAR expression in human MDA-MB-231 cells xenografted in BALB/c nude mouse at 25 to 50 mg/kg, po for 14 days in presence of 1:1 of compound:Olaparib by Western blot analysis; type: functional, organism-based; conditions: dose 25-50 mg/kg, time 14.0 day
[18] = system: MDA-MB-231; assay: Antimigratory activity in human MDA-MB-231 cells assessed as downregulation of MMP-2 level at 4 uM incubated for 2 days in presence of 1:1 of compound:Olaparib by immunoblot analysis; type: functional, cell-based; conditions: time 2.0 day
[19] = system: MCF7; assay: Induction of DNA damage in human MCF7 cells assessed as increase in comet tail length at 4 uM in presence 1:1 of Olaparib by alkaline comet assay; type: functional, cell-based
[20] = system: MDA-MB-231; assay: Induction of HR DNA repair in human MDA-MB-231 cells xenografted in BALB/c nude mouse assessed as decrease in BRCA1 level at 50 mg/kg, po for 14 days in presence of 1:1 of compound:Olaparib by Western blot analysis; type: functional, organism-based; conditions: time 14.0 day
[21] = system: MDA-MB-231; assay: Induction of DNA damage in human MDA-MB-231 cells xenografted in BALB/c nude mouse assessed as increase in gamma-H2AX level at 50 mg/kg, po for 14 days in presence of 1:1 of compound:Olaparib by Western blot analysis; type: functional, organism-based; conditions: time 14.0 day
[22] = system: MCF7; assay: Induction of apoptosis in human MCF7 cells assessed as decrease in Bcl-2 level at 4 uM incubated for 2 days in presence of 1:1 of compound:Olaparib by immunoblot analysis; type: functional, cell-based; conditions: time 2.0 day
[23] = system: MCF7; assay: Antiinvasive activity against human MCF7 cells at 4 uM incubated for 12 hrs in presence of 1:1 of compound:Olaparib by transwell assay; type: functional, cell-based
[24] = system: MDA-MB-231; assay: Induction of HR DNA repair in human MDA-MB-231 cells xenografted in BALB/c nude mouse assessed as decrease in BRCA1 level at 50 mg/kg, po for 14 days in presence of 1:1 of compound:Olaparib by H and E staining based IHC analysis; type: functional, organism-based; conditions: time 14.0 day
[25] = system: MDA-MB-231; assay: Induction of HR DNA repair in human MDA-MB-231 cells assessed as decrease in RAD51 level at 4 uM incubated for 48 hrs in presence of 1:1 of compound:Olaparib by DAPI staining based immunofluorescence analysis; type: functional, cell-based
[26] = system: HUVEC; assay: cells; conditions: Homo sapiens, 48 h
[27] = system: MDA-MB-231; assay: Antimigratory activity in human MDA-MB-231 cells assessed as upregulation of E-cadherin level at 4 uM incubated for 2 days by immunoblot analysis; type: functional, cell-based; conditions: time 2.0 day
[28] = target: Vascular endothelial growth factor receptor 2 (Homo sapiens, UniProt P35968); conditions: MDA-MB-231, dose 25-50 mg/kg, route po, time 14.0 day
Sequence of Vascular endothelial growth factor receptor 2 (P35968 whole entry): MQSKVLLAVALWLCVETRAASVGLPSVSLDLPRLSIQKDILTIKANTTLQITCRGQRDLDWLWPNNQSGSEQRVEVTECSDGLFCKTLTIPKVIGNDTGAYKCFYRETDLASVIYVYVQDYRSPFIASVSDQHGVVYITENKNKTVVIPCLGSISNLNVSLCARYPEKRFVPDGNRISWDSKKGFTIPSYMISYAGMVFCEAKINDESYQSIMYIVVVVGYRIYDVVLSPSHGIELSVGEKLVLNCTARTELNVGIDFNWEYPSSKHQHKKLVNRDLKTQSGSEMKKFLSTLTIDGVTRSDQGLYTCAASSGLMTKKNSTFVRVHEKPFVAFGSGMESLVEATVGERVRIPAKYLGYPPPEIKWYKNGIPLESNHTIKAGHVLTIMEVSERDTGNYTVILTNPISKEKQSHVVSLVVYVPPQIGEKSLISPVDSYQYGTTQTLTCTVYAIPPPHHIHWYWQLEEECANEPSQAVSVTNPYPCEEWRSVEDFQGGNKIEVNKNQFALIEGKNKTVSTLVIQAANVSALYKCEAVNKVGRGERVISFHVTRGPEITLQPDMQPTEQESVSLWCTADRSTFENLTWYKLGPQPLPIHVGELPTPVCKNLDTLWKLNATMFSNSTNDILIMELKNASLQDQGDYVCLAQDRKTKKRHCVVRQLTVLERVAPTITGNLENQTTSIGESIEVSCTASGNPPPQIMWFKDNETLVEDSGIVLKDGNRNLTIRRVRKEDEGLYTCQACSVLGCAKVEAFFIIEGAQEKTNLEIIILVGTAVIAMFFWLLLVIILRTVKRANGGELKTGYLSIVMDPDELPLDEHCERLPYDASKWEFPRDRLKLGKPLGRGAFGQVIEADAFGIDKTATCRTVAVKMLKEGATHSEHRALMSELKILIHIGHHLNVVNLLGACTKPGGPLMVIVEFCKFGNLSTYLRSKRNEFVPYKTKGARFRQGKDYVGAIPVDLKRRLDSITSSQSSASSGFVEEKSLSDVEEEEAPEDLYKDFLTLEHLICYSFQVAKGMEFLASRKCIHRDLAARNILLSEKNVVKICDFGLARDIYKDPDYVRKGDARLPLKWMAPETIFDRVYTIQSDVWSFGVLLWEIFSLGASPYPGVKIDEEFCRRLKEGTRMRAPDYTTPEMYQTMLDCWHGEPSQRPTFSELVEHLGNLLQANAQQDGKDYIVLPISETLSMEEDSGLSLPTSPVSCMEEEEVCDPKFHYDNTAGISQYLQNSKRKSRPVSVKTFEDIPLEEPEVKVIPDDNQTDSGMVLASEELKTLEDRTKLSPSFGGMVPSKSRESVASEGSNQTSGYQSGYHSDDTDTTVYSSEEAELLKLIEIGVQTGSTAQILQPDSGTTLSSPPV

[29] = system: MDA-MB-231; assay: Antiinvasive activity against human MDA-MB-231 cells at 4 uM incubated for 12 hrs in presence of 1:1 of compound:Olaparib by transwell assay; type: functional, cell-based
[30] = system: MCF7; assay: Antiproliferation activity against human MCF7 cells assessed as decrease in Ki67 expression at 4 uM incubated for 48 hrs in presence of 1:1 of compound:Olaparib by immunofluorescence analysis; type: functional, cell-based
[31] = system: MDA-MB-231; assay: Antimigratory activity in human MDA-MB-231 cells xenografted in lungs of BALB/c nude mouse assessed as increase in E-cadherin level in lungs at 50 mg/kg administered once a day measured after 14 days in presence of 1:1 of compound:Olaparib by IHC analysis; type: functional, organism-based; conditions: time 14.0 day
[32] = system: MCF7; assay: Induction of hypoxia in human MCF7 cells assessed as upregulation of HIF-1alpha level at 4 uM incubated for 2 days in presence 1:1 of Olaparib by Western blot analysis; type: functional, cell-based; conditions: time 2.0 day

Cc1ccc(Nc2nccc(N(C)c3ccc4c(C)n(C)nc4c3)n2)cc1S(N)(=O)=O [PAZOPANIB]
active: Activity [1] | Activity [2] | Activity [3] | Activity [5] | Activity [7] | Activity [8] | Activity [9] | Activity [10] | Activity [11] | inhibition [12] | Activity [13] | Activity [14] | Activity [15] | Activity [16] | Activity [17] | Activity [18] | Activity [19] | Activity [20] | Activity [21] | Activity [22] | Activity [23] | Activity [24] | Activity [25] | Activity [27] | inhibition [28] | Activity [29] | Activity [30] | Activity [31] | Activity [32]
> 10 µM: IC50 [4] | IC50 [6]
4.6 µM: IC50 [26]
